Source: patent publication US6440978B2, “Therapeutic agent for dermatitis” (Nippon Zoki Pharmaceutical Co., Ltd., priority 2000, dated 2002)

Tests used:
[1] = tested on: antigen-induced swelling reaction in a mouse ear; assay: Suppressive action against antigen-induced swelling reaction in a mouse ear; type: in vivo, BALB/c female mice
Description: (§1) Seven week old BALB/c female (SPF) mice of were selected as subjects. According to a method of Tanaka, et al. (Allergy, 46, pages 42-48(1997)), egg white albumin (final concentration: 2 μg/mL) and aluminum hydroxide gel (final concentration: 10 mg/mL) were suspended in physiological saline and 0.5 mL of the suspension was administered to effect intraperitoneal sensitization on the first day of the test. On the 14th day of the test, an additional sensitization was carried out under the same conditions. Further, on the 28th day of the test, 25 μL of egg albumin (a 20 μg/mL solution in physiological saline) was intradermally administered to the right ear of a mouse to induce a swelling reaction.
(§2) This swelling reaction reached its peak at 4 hours after the challenge by the antigen. Even after 24 to 48 hours, a significant swelling reaction was noted as compared with the control in which antigen was merely challenged (not sensitized). […] On the contrary, the swelling from 24 to 48 hours after the challenge is thought to be the so-called delayed-type swelling reaction accompanied by infiltration of eosinophils, neutrophils and lymphocytes. In addition, a flare-up reaction having a peak at 24 hours after the challenge appeared on the ear of the antigen-induced site. Like swelling, flare-up is an important symptom of inflammation. Although the mechanism of the flare-up reaction is ambiguous, it may be a flare-up reaction of a delayed type in view of the time course of its expression. As such, this model animal in which the inflammation of both immediate and delayed types are induced is appropriate as a model animal for atopic dermatitis. In the following experiment, the effectiveness of the therapeutic agent for dermatitis according to the present invention was tested using the said model animal.
Each of a vehicle (control) and a test agent (containing the compound of the present invention or a positive control) was applied to the antigen-induced site (right auricle) of a mouse. A swelling reaction was induced in accordance with Example 2 at 2 hours before and 4 hours after the challenge. After the challenge, the thickness of the swelling induced ear was measured by a Dial Thickness Gauge (manufactured by Ozaki Seisakusho). The intensity of the reaction was expressed in terms of an increase in the auricle thickness by deducting the thickness (early value) measured before the challenge from the thickness of the swelling induced ear. The suppression rate of the test drug for ear swelling was calculated by the following formula:
Suppression Rate (%)=100 ×[(Ear Thickness Increase of Vehicle-Only-Control)—(Ear Thickness Increase of the Test Group)]/[(Ear Thickness Increase of the Vehicle-Only-Control)—(Ear Thickness Increase of the Challenge-Only-Group)]

[2] = tested on: antigen-induced flare-up reaction in a mouse; assay: Suppressive action against antigen-induced flare-up reaction in a mouse; type: in vivo, BALB/c female mice; conditions: 0.12% ointment
Description: as §1, §2
Each of a vehicle (control) and an agent for the test (the therapeutic agent for dermatitis according to the present invention or a positive control) was applied to the antigen-induced site (right auricle) of a mouse to induce a swelling reaction in accordance with Example 2 at 2 hours before and 4 hours after the challenge. The right ear was observed by naked eye and the degree of flare-up was scored according to the following standard:
1: in such a degree that a flare-up was confirmed, the color is clear red or pale red and the size was small
2: between score 3 and score 1
3: color of the flare-up was clearly red and the size of the flare-up was big

ear of a normal mouse = assay: Influence of repeated application on the ear thickness of a normal mouse; type: in vivo
Description: The therapeutic agent for dermatitis according to the present invention or the positive control (steroid preparation) was applied twice daily to the right ear of a normal mouse for a total of nine times and, 2 hours after the final application, the thickness of the ear was measured.

[3] = Table 2, 1% ointment, 24 hr after challenge
[4] = Table 2, 3% ointment, 24 hr after challenge
[5] = Table 1, 0.12% ointment, 1 hr after challenge
[6] = Table 1, 0.12% ointment, 8 hr after challenge
[7] = Table 1, 0.12% ointment, 24 hr after challenge
[8] = Table 1, 0.12% ointment, 48 hr after challenge
[9] = Table 2, 0.12% ointment, 24 hr after challenge

Nc1ccc2c(=O)n(Cc3ccccc3Cl)c(=O)n(-c3ccccc3)c2n1 [Compound 2, 7-amino-3-(2-chlorobenzyl)-1,2,3,4-tetrahydro-1-phenylpyrido[2,3-d]pyrimidin-2,4-dione]
Ear Thickness Increase at 4 hr after Challenge ([1]; Table 2, 1% ointment): 19.5 ± 3.2 × 0.01 mm
Suppression Rate of ear thickness increase at 4 hr after Challenge ([1]; Table 2, 1% ointment): (22.2%)
Ear Thickess Increase at 24 hr after Challenge [1, 3]: 11.8 ± 2.6 × 0.01 mm
Suppression Rate of ear thickness increase at 24 hr after Challenge [1, 3]: (30.3%)
Ear Thickness Increase at 4 hr after Challenge ([1]; Table 2, 3% ointment): 19.3 ± 2.4 × 0.01 mm
Suppression Rate of ear thickness increase at 4 hr after Challenge ([1]; Table 2, 3% ointment): (23.1%)
Ear Thickess Increase at 24 hr after Challenge [1, 4]: 8.0 ± 1.4 × 0.01 mm
Suppression Rate of ear thickness increase at 24 hr after Challenge [1, 4]: (54.8%)

CCCCC(=O)O[C@]1(C(=O)CO)[C@@H](C)C[C@H]2[C@@H]3CCC4=CC(=O)C=C[C@]4(C)[C@@]3(F)[C@@H](O)C[C@@]21C [Positive Control, betamethasone valerate, reference compound]
Ear Thickness Increase at 1 hr after Challenge [1, 5]: 8.3 ± 0.7 × 0.01 mm
Suppression Rate of ear thickness increase at 1 hr after Challenge [1, 5]: (45.5%)
Ear Thickness Increase at 4 hr after Challenge ([1]; Table 1, 0.12% ointment): 16.3 ± 2.0 × 0.01 mm
Suppression Rate of ear thickness increase at 4 hr after Challenge ([1]; Table 1, 0.12% ointment): (42.0%)
Ear Thickness Increase at 8 hr after Challenge [1, 6]: 2.0 ± 1.2 × 0.01 mm
Suppression Rate of ear thickness increase at 8 hr after Challenge [1, 6]: (49.7%)
Ear Thickness Increase at 24 hr after Challenge [1, 7]: 5.0 ± 1.0 × 0.01 mm
Suppression Rate of ear thickness increase at 24 hr after Challenge [1, 7]: (80.0%)
Ear Thickness Increase at 48 hr after Challenge [1, 8]: 2.0 ± 1.0 × 0.01 mm
Suppression Rate of ear thickness increase at 48 hr after Challenge [1, 8]: (100.0%)
Ear Thickness Increase at 4 hr after Challenge ([1]; Table 2, 0.12% ointment): 11.0 ± 0.6 × 0.01 mm
Suppression Rate of ear thickness increase at 4 hr after Challenge ([1]; Table 2, 0.12% ointment): (60.0%)
Ear Thickess Increase at 24 hr after Challenge [1, 9]: 6.3 ± 2.4 × 0.01 mm
Suppression Rate of ear thickness increase at 24 hr after Challenge [1, 9]: (65.8%)
Suppression Rate of flare-up score at 4 hr after Challenge ([2]; 4 hr after challenge): (25.0%)
Flare-up Score at 4 hr after Challenge ([2]; 4 hr after challenge, score 0-3): 0.6 ± 0
Suppression Rate of flare-up score at 24 hr after Challenge ([2]; 24 hr after challenge): (40.0%)
Flare-up Score at 24 hr after Challenge ([2]; 24 hr after challenge, score 0-3): 1.5 ± 0.2
Ear Thickness (ear of a normal mouse; 0.12% ointment applied twice daily, nine times in total, 2 hours after final application): 18.3 ± 0.5 × 0.01 mm
influence of repeated application on auricle thickness (ear of a normal mouse; positive control ointment, repeated application): significantly reduced the auricle thickness
